In test [1] the test system is Candida albicans (ATCC 10231). The test can be described thus: Minimum inhibitory concentration and synergy index according to Kull et al. The format is cell-based. The following applies: for Synergistic Index Qa/QA + Qb/QB: MIT + amine oxide. Here is the method: (§1) The synergism of a combination of 2-Methyl-isothiazolinone (MIT) with N,N-Dimethyldodecan-1-amine oxide was tested. Test organisms used was the mould Aspergillus niger (DSM 12623). For the purpose of the test, mixtures containing different concentrations of MIT and N,N-Dimethyldodecan-1-amine oxide were prepared and tested for their action on Aspergillus niger. […] The MIC is the concentration at which there is no formation of colonies or mycelia on the surface of the agar (Aspergillus niger).
(§2) The synergism that occurred was presented numerically by calculation of the synergy index (SI). This calculation was made using the common method of F. C. Kull et al., Applied Microbiology, vol. 9 (1961), p. 538. SI is calculated there in accordance with the following formula:
(§3) Synergy index SI=Qa/QA+Qb/QB
(§4) Qa=concentration of MIT in the mixture of N,N-Dimethyldodecan-1-amine oxide+MIT QA=concentration of MIT as sole biocide Qb=concentration of N,N-Dimethyldodecan-1-amine oxide in the biocide mixture of N,N-Dimethyldodecan-1-amine oxide+MIT QB=concentration of N,N-Dimethyldodecan-1-amine oxide as sole biocide
(§5) If the synergy index has a value of more than 1, this means that there is an antagonism. If the synergy index adopts a value of 1, this means that the action of the two biocides is additive. If the synergy index takes on a value of below 1, this means that there is synergism of the two biocides.
Determination of the Synergy Index According to Kull et al. of N,N-Dimethyldodecan-1-amine oxide+MIT in Respect of Candida albicans (ATCC 10231)
The cell density of Candida albicans (ATCC 10231) was 10^6/ml, incubation time 72 hours, temperature 25° C.
Determination of the Synergy Index According to Kull et al. of N,N-Dimethyldodecan-1-amine oxide+MIT+2-n-octyl-4-isothiazolin-3-one (OIT) in Respect of Candida albicans (ATCC 10231)

In test [2] the test system is Aspergillus niger (DSM 12623). The test can be described thus: Minimum inhibitory concentration and synergy index (Kull) in Sabouraud glucose agar, visual growth reading. The conditions noted are these: 72 hours at 25° C.; for Synergistic Index Qa/QA + Qb/QB: below 1 = synergism, 1 = additive, above 1 = antagonism. The class given is cell-based. On the procedure:
as §1, §2, §3
In the application of this formula to the MIT+N,N-Dimethyldodecan-1-amine oxide biocide system tested here, the variables in the formula have the following definition:
as §4, §5
Determination of the Synergy Index of N,N-Dimethyldodecan-1-amine oxide+MIT in Respect of Aspergillus niger for an Incubation Time of 72 Hours at 25° C.

Where [3] appears, read: Table 2, sum of MIT and amine oxide at MIC.

`CCCCCCCCCCCC[N+](C)(C)[O-]` [Amine oxide, N,N-Dimethyldodecan-1-amine oxide]: the “Synergistic Index Qa/QA + Qb/QB” value stood at 1.00 in test [1] (Table 2, 72 hours, 25° C.) and 1.00 in test [2]. The “MHK Qb (Amine oxide)” value is 50 ppm in test [1] (Table 2, amine oxide concentration at MIC, alone or in mixture with MIT, 72 hours, 25° C.) and 231 (MIC) ppm in test [2] (amine oxide concentration at MIC, alone (MIC) or in mixture with MIT). The Qb/QB in test [1] (Table 2, amine oxide in mixture / amine oxide as sole biocide) is reported as 1.00. Besides, the Total in test [1] (setting [3]) worked out at 50 ppm.
Regarding `Cn1sccc1=O` [MIT, 2-methylisothiazolin-3-one], the “Synergistic Index Qa/QA + Qb/QB” value in test [1] (Table 2, 72 hours, 25° C.) turned out to be 1.00; in test [2], 1.00. Besides, the “MHK Qa (MIT)” value in test [1] (Table 2, MIT concentration at MIC, alone or in mixture with amine oxide, 10^6/ml, 72 hours, 25° C.) is 125 ppm; in test [2] (MIT concentration at MIC, alone (MIC) or in mixture with amine oxide, 3,7·10^6 spores per ml), 1000 (MIC) ppm. For the same molecule, the Qa/QA in test [1] (Table 2, MIT in mixture / MIT as sole biocide) was 1.00. In addition, the Total in test [1] (setting [3]) is reported as 125 ppm.
For the molecule `CCCCCCCCn1sccc1=O` [OIT, 2-n-octyl-4-isothiazolin-3-one], the Total in test [1] (Table 3) amounted to 3 ppm. The “Synergistic Index” value in test [1] (Table 3, MIT + amine oxide + OIT) is listed as 1.00. Also, the Qb/QB in test [1] (Table 3, OIT component) is listed as 1.00. For the same molecule, the “MHK Qb (OIT)” value in test [1] (Table 3, OIT concentration at MIC, alone or with MIT + amine oxide) worked out at 3 ppm.

(Values after patent US20160106099A1, “MICROBICIDAL COMPOSITION COMPRISING ISOTHIAZOLONE AND AN AMINE OXIDE” (THOR GMBH, priority 2013, published 2016).)
